The text below walks through data of patent US11753407B2, “Compounds for treating spinal muscular atrophy” (PTC Therapeutics, Inc., priority 2012, dated 2023).

Data set [1] relates to SMN2 minigene mRNA (SMN2-A minigene) in HEK293H cells. Nature of the data set: SMN2 minigene mRNA splicing RT-qPCR assay in cultured cells. Particulars: Homo sapiens, HEK293-H; concentration increasing full length SMN2 mRNA 1.5-fold relative to vehicle-treated cells; HEK293H cells with SMN2-A minigene, 24 hours, 7-point concentration data; read-out: EC1.5x for production of full length SMN2 mRNA. It counts as cell-based, human. The essentials: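 HEK293H cells stably carrying SMN2-A minigene treated with compounds (7-point, 3.16-fold dilutions, duplicates) for 24 h at 37 °C. Full-length exon 7-containing minigene mRNA measured by multiplex RT-qPCR with GAPDH, normalized and expressed relative to vehicle (modified ΔΔCt); EC1.5× is concentration giving 1.5-fold increase.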

For data set [2], the system named is Smn protein in SMA patient fibroblast cells (GM03813). Put plainly: Smn protein assay in cultured cells (SMN HTRF). Format: cell-based, human. The conditions noted are these: SMA patient fibroblast cells, 48 hours; for EC1.5x for Smn protein expression: 7-point concentration curve, SMN HTRF, concentration producing 1.5 times Smn protein vs DMSO vehicle control; for maximum fold (Fold) increase of Smn protein: 7-point concentration data, fold relative to vehicle control. The essentials: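 SMA patient fibroblasts (5,000/well, DMEM-10% FBS) treated 48 h at 37° C with 7-point, 3.16-fold compound series in triplicate; lysates read by SMN HTRF (665/620 nm ratio). Fold Smn increase over DMSO vehicle derived; EC1.5× is concentration giving 1.5-fold Smn, with maximum fold also reported.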
On the technique in general: TR-FRET usually uses a lanthanide donor and a delayed reading to cut background.

Usually melting point stands for the temperature of the solid-liquid transition. `CC[C@H]1CN(c2cc(C)c3nc(-c4cc5c(C)nc(C)cn5n4)cc(=O)n3c2)CCN1` [Compound 732, 2-(4,6-dimethylpyrazolo[1,5-a]pyrazin-2-yl)-7-[(3S)-3-ethylpiperazin-1-yl]-9-methyl-4H-pyrido[1,2-a]pyrimidin-4-one] displayed a melting point of 243 to 251 °C. Moreover, in data set [1], the EC (1.5-fold increase) fell in the range of 0.3 to 1 µM. Further, in data set [2], the “EC1.5x for Smn protein expression” value was “*** (an EC1.5× between >0.3 μM and ≤1 μM is indicated by three stars (***))”; the “maximum fold (Fold) increase of Smn protein” value (shortened to “maximum fold (Fold) increase”) is “**** (a fold increase between >1.5 and ≤1.65 is indicated by four stars (****))”.

For the compound `O=c1cc(-c2cc(F)cc(F)c2)nc2ccc(N3CCNCC3)cn12` [Compound 79, 2-(3,5-difluorophenyl)-7-(piperazin-1-yl)-4H-pyrido[1,2-a]pyrimidin-4-one], the melting point was in the range of 195 to 198 °C. In addition, in data set [1], the EC (1.5-fold increase) was in the range of 0.1 to 0.3 µM. Also, in data set [2], the “EC1.5x for Smn protein expression” value was “*** (an EC1.5× between >0.3 μM and ≤1 μM is indicated by three stars (***))”; the “maximum fold (Fold) increase” value was “**** (a fold increase between >1.5 and ≤1.65 is indicated by four stars (****))”.

Turning to `Cc1cn2nc(-c3cc(=O)n4cc(N5CCN[C@H](C)C5)ccc4n3)cc2cn1` [Compound 472, 7-[(3R)-3-methylpiperazin-1-yl]-2-(6-methylpyrazolo[1,5-a]pyrazin-2-yl)-4H-pyrido[1,2-a]pyrimidin-4-one], the melting point lay within 240 to 244 °C. Besides, in data set [1], the EC (1.5-fold increase) was below 0.1 µM. Also, in data set [2], the “EC1.5x for Smn protein expression” value was “**** (an EC1.5x≤0.3 μM is indicated by four stars (****))” and the “maximum fold (Fold) increase” value is “***** (a fold increase >1.65 is indicated by five stars (*****))”.

`Cn1ncc2cc(-c3cc(=O)n4cc(C5=CCNCC5)ncc4n3)ccc21` [Compound 505, 2-(1-methyl-1H-indazol-5-yl)-7-(1,2,3,6-tetrahydropyridin-4-yl)-4H-pyrazino[1,2-a]pyrimidin-4-one] returned a melting point of 228 to 230 °C. Also, the EC (1.5-fold increase) in data set [1] is below 0.1 µM. In data set [2], the “EC1.5x for Smn protein expression” value is “**** (an EC1.5x≤0.3 μM is indicated by four stars (****))”; the “maximum fold (Fold) increase” value is “**** (a fold increase between >1.5 and ≤1.65 is indicated by four stars (****))”.

In the case of `Cc1ccc2nc(-c3cc(=O)n4cc(N5CCNCC5)ccc4n3)cn2c1` [Cpd 29, 2-(6-methylimidazo[1,2-a]pyridin-2-yl)-7-(piperazin-1-yl)-4H-pyrido[1,2-a]pyrimidin-4-one], the melting point was 193 to 198 °C. In addition, in data set [1], the EC (1.5-fold increase) lay within 3 to 30 µM. Besides, the “maximum fold (Fold) increase” value in data set [2] is “*** (a fold increase between >1.35 and ≤1.5 is indicated by three stars (***))”.

On to `COc1ccc(-c2cc(=O)n3cc(C4=CCNCC4)ccc3c2)cc1OC` [Cpd 245, 2-(3,4-dimethoxyphenyl)-7-(1,2,3,6-tetrahydropyridin-4-yl)-4H-quinolizin-4-one], for which the melting point was in the range of 174 to 176 °C. Moreover, the EC (1.5-fold increase) in data set [1] is 0.3 to 1 µM. The “maximum fold (Fold) increase” value in data set [2] is “** (a fold increase between >1.2 and ≤1.35 is indicated by two stars (**))”.

Take `CCc1nc(C)cn2cc(-c3cc(=O)n4cc(N5CCCNCC5)ccc4n3)cc12` [Compound 749, 7-(1,4-diazepan-1-yl)-2-(1-ethyl-3-methylpyrrolo[1,2-a]pyrazin-7-yl)-4H-pyrido[1,2-a]pyrimidin-4-one]: the melting point lay within 200 to 202 °C. Besides, the EC (1.5-fold increase) in data set [1] is below 0.1 µM. In data set [2], the “EC1.5x for Smn protein expression” value is “**** (an EC1.5x≤0.3 μM is indicated by four stars (****))” and the “maximum fold (Fold) increase” value is “***** (a fold increase >1.65 is indicated by five stars (*****))”.

Take `CCc1cc(C2CCN(C)CC2)cn2c(=O)cc(-c3ccc(OC)c(OC)c3)nc12` [Compound 434, 2-(3,4-dimethoxyphenyl)-9-ethyl-7-(1-methylpiperidin-4-yl)-4H-pyrido[1,2-a]pyrimidin-4-one]: the melting point worked out at 146 °C. The EC (1.5-fold increase) in data set [1] was 0.3 to 1 µM. For the same compound, the “maximum fold (Fold) increase” value in data set [2] is “** (a fold increase between >1.2 and ≤1.35 is indicated by two stars (**))”.

On to `COc1ccc(-c2cc(=O)n3cc(C4CCNCC4)ccc3n2)cc1F` [Compound 403, 2-(3-fluoro-4-methoxyphenyl)-7-(piperidin-4-yl)-4H-pyrido[1,2-a]pyrimidin-4-one], for which the melting point was in the range of 122 to 125 °C. Also, the EC (1.5-fold increase) in data set [1] was below 0.1 µM. In data set [2], the “EC1.5x for Smn protein expression” value was “** (an EC1.5× between >1 μM and ≤3 μM is indicated by two stars (**))”; the “maximum fold (Fold) increase” value is “**** (a fold increase between >1.5 and ≤1.65 is indicated by four stars (****))”.

With `Cc1cn2nc(-c3cc(=O)n4cc(C5=CCN(C(C)C)CC5)ccc4n3)cc2c(C)n1` [Compound 355, 2-(4,6-dimethylpyrazolo[1,5-a]pyrazin-2-yl)-7-[1-(propan-2-yl)-1,2,3,6-tetrahydropyridin-4-yl]-4H-pyrido[1,2-a]pyrimidin-4-one], the melting point lay in the range of 186 to 189 °C. In data set [1], the EC (1.5-fold increase) is below 0.1 µM. Further, in data set [2], the “EC1.5x for Smn protein expression” value is “*** (an EC1.5× between >0.3 μM and ≤1 μM is indicated by three stars (***))”; the “maximum fold (Fold) increase” value was “**** (a fold increase between >1.5 and ≤1.65 is indicated by four stars (****))”.

`Cc1cn2cc(-c3cc(=O)n4cc(N5CCN[C@@H](C)C5)ccc4n3)cc(Cl)c2n1` [Compound 291, 2-(8-chloro-2-methylimidazo[1,2-a]pyridin-6-yl)-7-[(3S)-3-methylpiperazin-1-yl]-4H-pyrido[1,2-a]pyrimidin-4-one] showed a melting point of 236 to 239 °C. The EC (1.5-fold increase) in data set [1] was below 0.1 µM. Moreover, in data set [2], the “EC1.5x for Smn protein expression” value is “**** (an EC1.5x≤0.3 μM is indicated by four stars (****))” and the “maximum fold (Fold) increase” value was “***** (a fold increase >1.65 is indicated by five stars (*****))”.

Consider `Cc1cn2nc(-c3cc(=O)n4cc(C5CCN(C6CC6)CC5)ccc4n3)cc2c(C)n1` [Compound 641, 7-(1-cyclopropylpiperidin-4-yl)-2-(4,6-dimethylpyrazolo[1,5-a]pyrazin-2-yl)-4H-pyrido[1,2-a]pyrimidin-4-one], for which the melting point is 180 to 183 °C. Further, the EC (1.5-fold increase) in data set [1] is below 0.1 µM. In addition, in data set [2], the “EC1.5x for Smn protein expression” value is “**** (an EC1.5x≤0.3 μM is indicated by four stars (****))” and the “maximum fold (Fold) increase” value is recorded as “***** (a fold increase >1.65 is indicated by five stars (*****))”.

In turn, `CCCc1nc(C)cn2nc(-c3cc(=O)n4cc(N5CCN(CC)CC5)ccc4n3)cc12` [Compound 725, 7-(4-ethylpiperazin-1-yl)-2-(6-methyl-4-propylpyrazolo[1,5-a]pyrazin-2-yl)-4H-pyrido[1,2-a]pyrimidin-4-one] came in with a melting point of 231 to 233 °C. In data set [1], the EC (1.5-fold increase) fell in the range of 0.1 to 0.3 µM. Also, in data set [2], the “EC1.5x for Smn protein expression” value was “*** (an EC1.5× between >0.3 μM and ≤1 μM is indicated by three stars (***))”; the “maximum fold (Fold) increase” value is given as “***** (a fold increase >1.65 is indicated by five stars (*****))”.

Compound `Cc1cn2ccc(-c3cc(=O)n4cc(C5CCN(C)CC5)ccc4n3)cc2n1` [Compound 559, 2-(2-methylimidazo[1,2-a]pyridin-7-yl)-7-(1-methylpiperidin-4-yl)-4H-pyrido[1,2-a]pyrimidin-4-one] showed a melting point of 255 to 260 °C. For the same compound, in data set [1], the EC (1.5-fold increase) was 1 to 3 µM. In addition, the “maximum fold (Fold) increase” value in data set [2] is “* (A maximum fold increase of ≤1.2 is indicated by one star (*))”.

`Cc1cn2cc(-c3ccc4nc(C5=CCNCC5)cc(=O)n4c3)ccc2n1` [Compound 375, 7-(2-methylimidazo[1,2-a]pyridin-6-yl)-2-(1,2,3,6-tetrahydropyridin-4-yl)-4H-pyrido[1,2-a]pyrimidin-4-one] returned a melting point of 197 to 201 °C. In data set [1], the EC (1.5-fold increase) is below 0.1 µM. In addition, in data set [2], the “EC1.5x for Smn protein expression” value was “**** (an EC1.5x≤0.3 μM is indicated by four stars (****))”; the “maximum fold (Fold) increase” value is “**** (a fold increase between >1.5 and ≤1.65 is indicated by four stars (****))”.

In turn, `C[C@H]1CN(c2ccc3nc(-c4cc(F)cc(Cl)c4)cc(=O)n3c2)CCN1` [Compound 189, 2-(3-chloro-5-fluorophenyl)-7-[(3S)-3-methylpiperazin-1-yl]-4H-pyrido[1,2-a]pyrimidin-4-one] yielded a melting point of 188 to 190 °C. In addition, the EC (1.5-fold increase) in data set [1] lay within 0.3 to 1 µM. Besides, in data set [2], the “EC1.5x for Smn protein expression” value was “*** (an EC1.5× between >0.3 μM and ≤1 μM is indicated by three stars (***))”; the “maximum fold (Fold) increase” value is “**** (a fold increase between >1.5 and ≤1.65 is indicated by four stars (****))”.

Take `Cn1cc2cc(-c3cc(=O)n4cc(N5CCNCC5)ccc4n3)ccc2n1` [Compound 137, 2-(2-methyl-2H-indazol-5-yl)-7-(piperazin-1-yl)-4H-pyrido[1,2-a]pyrimidin-4-one]: the melting point lay within 175 to 180 °C. In addition, in data set [1], the EC (1.5-fold increase) fell in the range of 0.1 to 0.3 µM. In data set [2], the “EC1.5x for Smn protein expression” value was “*** (an EC1.5× between >0.3 μM and ≤1 μM is indicated by three stars (***))”; the “maximum fold (Fold) increase” value is “***** (a fold increase >1.65 is indicated by five stars (*****))”.
